In patent publication US9737525B2, “Small molecule activators of NRF2 pathway” (The General Hospital Corporation, priority 2013, dated 2017):

Legend:
[1] = system: primary astrocytes; experiment: IL-6 release from primary astrocytes of wild type and YAC128 mice (ELISA); type: cell-based, mouse; details: CSE-stimulated wild type and YAC128 astrocytes
Method: Whole brains were obtained from post-natal 1 to 3 day old wild type and YAC128 mouse pups on the FVB/N strain background and placed in Hanks Balanced Salt Solution (HBSS; Invitrogen) on ice. Meninges were removed and the remaining brain tissue was placed into growth medium (DMEM [Invitrogen], 10% FBS [PAA], 1% L-glutamine [Invitrogen], 1% penicillin/streptomycin [Invitrogen]), and homogenized using a 5 ml pipette. Cells of each brain were pelleted, re-suspended in growth medium and transferred into a T150 flask, cultured at 37° C. with 5% CO2. Growth medium was replaced after 24 hr and then every 7 days. After 18 to 21 days in culture, loosely attached microglia were harvested and seeded at 1.4×10^5 cells/ml with pre-incubated conditioned media into 96-well PRIMARIA™ tissue culture plates (BD Falcon). Adherent astrocytes were plated at 1.4×10^5 cells/ml in 10% FBS media for 24 hr in 96-well PRIMARIA™ tissue culture plates. After the initial isolation microglia and astrocytes were seeded at a density of 1.4×10^5 cells/ml into 96-well PRIMARIA™ tissue culture plates. […] Cells were lysed and total protein levels were determined using the microBCA kit (Thermo Scientific). Supernatants were analyzed using mouse IL-6 ELISA (e-Biocience) and IL-6 levels were normalized to total protein levels.

[2] = system: ARE genes Nqo1, Hmox1, Gclc; experiment: qPCR of ARE target genes in corticostriatal co-cultures; type: cell-based, mouse; details: 6 hr
Method: Primary corticostriatal neuronal co-cultures were prepared from E18 mouse brains as previously described [Kaltenbach, 2010]. Mice were maintained in accordance with Duke University Medical Center Institutional Animal Care and Use Committee guidelines. For 5×-ARE-luciferase reporter assays, neurons were transfected following their isolation (Nucleofector, Lonza) with 2.5 μg Cignal Antioxidant Response Reporter dual luciferase plasmids (Qiagen/SABiosciences) and plated onto pre-established glial beds in 96 well plates. After 4 days in culture at 37° C. under 5% CO2, co-cultures were treated with the indicated compounds for 4 hr or 16 hr then harvested and read for luminescence from firefly and Renilla luciferases according to the Dual Glo luciferase protocol (Promega) using a SpectraMaxL luminometer (Molecular Devices). Each sample was measured in technical triplicate. For quantitative RT-PCR (qPCR) of ARE target genes, corticostriatal co-cultures were prepared as described above and, after 4 days in culture, treated for 6 hr with the indicated compounds followed by RNA harvesting according to the Absolutely RNA miniprep protocol (Agilent Technologies). Purified RNA was converted to cDNA using random hexamers and SuperScript First-Strand RT-PCR Synthesis (Invitrogen). […] Ct values were determined using primer sets against ARE genes Hmox1, Gclc and Nqo1]. […]

[3] = system: EGFP-NRF2; experiment: Live-cell imaging of HEK293 cells expressing EGFP-NRF2 and KEAP1-mCherry; type: cell-based, human; details: 1 μM for 1 hr
Method: To examine the effect of MIND4-17 on the stabilization and sub-cellular localization of NRF2 in live cells, HEK293 cells (200,000 per dish) grown in α-MEM supplemented with 10% heat-inactivated FBS on 6-cm glass dishes, were co-transfected with constructs encoding EGFP-NRF2 and KEAP1-mCherry using Lipofectamine 2000 (Invitrogen) as described [Baird, 2013]. Cells were imaged 24 hr post-transfection before and after 1 hr-exposure to 1 μM MIND4-17. All images were acquired by confocal microscopy using a laser-scanning confocal microscope (LSM780; Carl Zeiss). The microscope was equipped with a thermostated chamber suitable to maintain the live cells and optics at constant 37° C. Imaging was performed using a 63× oil immersion NA 1.4 Plan-Apochromat objective from Zeiss.

[4] = system: Drosophila expressing mutant Htt exon 1; experiment: Drosophila model of HD, photoreceptor neuron (rhabdomere) survival; type: in vivo; details: 10 μM, treated vs. untreated flies, day 7 after eclosion
Method: Compound treatment of Drosophila HD model and efficacy analysis of MIND4 effects on photoreceptor neurons was performed as described (Steffan et al., 2001; Pallos et al., 2008). Drosophila models have been important in the genetic identification of pathological and neuroprotective mechanisms as well as for testing therapeutic candidates in HD (Marsh et al., 2003). In wild type flies, seven rhabdomeres (photoreceptor neurons) are visible in the adult eye, whereas chronic expression of mHTTex1 causes progressive degeneration of these neurons, detected as a reduction of rhabdomere number. Rhabdomeres were counted on day 7 after eclosion in animals treated with varying doses of MIND4. The indicated numbers of flies were scored for each condition (n) with the number of ommatidia scored indicated in parentheses. Trial 1: DMSO=11(449); MIND4 1 μM=3(112); MIND4 10 μM=9(337); […]=9(364). […]
MIND4 was tested for its potential efficacy by monitoring the degeneration of photoreceptor neurons in the eyes of Drosophila expressing expanded repeat HTT exon 1 protein in all neurons beginning during embryogenesis (Steffan et al., 2001). […] Chronic expression of mutant HTT causes progressive degeneration of these neurons, detected as a reduction of rhabdomeres number. Rhabdomeres were counted on day 7 after eclosion in animals treated with varying doses of MIND4. […]

**Q.** What does the source list for `O=[N+]([O-])c1ccc(Sc2nnc(COc3ccccc3)n2-c2ccccc2)nc1` [MIND4-17]?
**A.** IL-6 release [1]: dose-response reduction of IL-6 release; Expression of ARE genes Nqo1, Hmox1 [2]: increased the expression of the canonical ARE genes Nqo1, Hmox1; Expression of Gcic [2]: ~2 fold; Stabilization and sub-cellular localization of NRF2 [3]: stabilization and nuclear translocation of EGFP-NRF2

**Q.** Which “Relative rescue of photoreceptor neurons, Trial 1” value [4] does the source give for `O=[N+]([O-])c1ccc(Sc2nnc(COc3ccccc3)n2-c2ccccc2)c2ncccc12` [MIND4, 5-nitro-8-{[5-(phenoxymethyl)-4-phenyl-4H-1,2,4-triazol-3-yl]thio}quinoline] here?
**A.** 22.6%

**Q.** And the “Relative rescue of photoreceptor neurons, Trial 2” value [4]?
**A.** 20.7%
